Measured values from US20120190615A1, “METHODS AND COMPOSITIONS FOR INDUCING WEIGHT LOSS” (Sanford-Burnham Medical Research Institute, priority 2011, published 2012).

Key:
HIB1 cells = experiment: Differentiation of HIB1 brown preadipocytes (lipid accumulation, mitochondrial biogenesis); type: cell-based; settings: 24 hours, absence of standard induction cocktail
Experimental: To further investigate the role of OX in BAT differentiation, the effect of OX on the preadipocyte cell line HIB1 was evaluated. […] Expression of genes functioning in lipid metabolism and mitochondrial biogenesis was elevated while the anti-adipogenic factors […], Pref1, and Wnt10 were expressed at very low levels (FIG. 16).
HIB1 cells were stably transfected with lentivirus over-expressing orexin (Len-OX) and compared to vector controls in the absence or presence of exogenous OX (100 nM), Cells were cultured for 7 days in the absence of differentiation medium and stained with Oil Red O. By day 6 of adipogenic differentiation, orexin-expressing cells had undergone normal BAT differentiation as scored by lipid accumulation.
Brown fat morphological defects seen in both adult and newborn OXR1 KO mice were similar to those observed in OX KO mice. […] To examine the cellular and molecular consequences of OXR1 depletion, lentiviral vectors were used to express a short hairpin (sh) shRNA targeting OXR1 (shOXR1; Open Biosystems, Inc., catalog no. RMM4431-98766481) or a scrambled shRNA control (Open Biosystems, Inc., catalog no. RHS4346) in HIB1 mesenchymal cells. […] After 5 days of differentiation, cultures expressing the scrambled shRNA control had undergone brown fat differentiation as scored by Oil Red O staining and shown in FIG. 18. […]

[1] = test system: C3H10T1/2 mesenchymal stem cells; experiment: Brown fat differentiation of C3H10T1/2 mesenchymal stem cells (Oil Red O, immunoblot, qRT-PCR, MitoTracker); type: cell-based, mouse
Experimental: OXR1 expression was confirmed in the undifferentiated mesenchymal stem cell line C3H10T1/2 cells (ATCC). Cells were grown to 50-70% confluence in high glucose DMEM supplemented with 10% FBS and differentiated in standard induction media supplemented with 100 nM human orexin A (cat. No. 24470, Anaspec), vehicle, or recombinant human BMP-7 (cat. No. 4579, BioVision, a potent inducer of […] differentiation) for three days, at which time cells reached 100% confluence. Cells were then incubated in adipogenic media for 7 days in the absence of […]. Cells were then stained with Oil Red O according to the following protocol. Cells were washed twice with phosphate-buffered saline (PBS), fixed with 10% buffered formalin for 1 hour at room temperature, washed twice in PBS, stained for 30 minutes at room temperature with a filtered Oil red O (Sigma) solution (0.5% Oil red O in isopropyl alcohol), washed twice with PBS, and stored in PBS for visualization under the inverted microscope (Olympus).
Following OX treatment, greater than 90% of cells differentiated from an elongated fibroblastic morphology to a spherical one typical of differentiated fat cells. OXR1 expression in the differentiated mesenchymal cells was done using RT-PCR analysis of the OXR1 mRNA. FIG. 4 provides the Ct value OXR1 and the Ct value for 18S RNA is shown for comparison.
To determine triglyceride content, BAT was homogenized in 1 ml of saline solution and Triglycerides Reagent Kit (Pointe Scientific) was used to determine triglyceride concentration in the tissue.
Protein extracts from the treated mesenchymal cells was used to assess the expression of early adipogenic transcription factors that are known to function in adipogenesis. Specifically, immunoblotting was used to assess the expression of C/ebp-alpha, Ppar-γ1, Prdm16, Pgc1-alpha, and Ucp1 in the differentiated mesenchymal stem cells.
The expression of several adipogenic inhibitors was assessed in the differentiated mesenchymal stem cells and control cells by qRT-PCR. Undifferentiated C3H10T1/2 cells abundantly express Necdin, preadpocyte factor-1 (Pref-1), and Wnt10a, all of which inhibit early adipogenic events. Preadipocytes must counteract an adipogenic block imposed by these factors in order to differentiate. […] FIG. 6 illustrates results from a PCR analysis of adipogenic inhibitors in C3H10T1/2 cells treated with BMP-7 or OX for 3 days followed by adipogenic induction for 7 days. Data are expressed as arbitrary units after normalization to 18S RNA.
The cultured mesenchymal stem cells were assessed for the expression of a variety of regulators of adipogenesis and mitochondrial function, qRT-PCR was performed as follows: RNA was isolated using Trizol lysis reagent (Qiagen) and purified by RNeasy Mini columns (Qiagen), cDNA was produced using an RT-PCR kit (Applied Biosystems) and primers synthesized by Integrated DNA Technologies, and PCR reactions were run in duplicate for each sample and quantified in the ABI Prism 7000 Sequence Detection System (Applied Biosystems) The expression of each RNA was normalized to the 18S RNA level.
Important adipogenic regulators such as C/ebp. […] Mitochondiral transcription factor (Tfam), cytochrome oxidase (Cox7a, Cox8b) and deiodinase-2 expression were elevated before exposure to adipogenic media, as shown in FIG. 10. […] Expression of stearoyl-CoA desaturase (Scd), an enzyme catalyzing the rate-limiting step in lipid biosynthesis, was also elevated over 100-fold during differentiation. mRNAs encoding other markers fatty acid oxidation such as Lp1, Sirt3, Adam15-1 and Adam15-2, and Adipor1 were enriched in differentiated mesenchymal stem cells following OX treatment (FIG. 11).
Based on the foregoing studies, three features distinguish BAT from WAT: the appearance of multilocular oil droplets, mitochondrial enrichment, and Ucp-1 expression. […]

C57BL/6 mice = experiment: Single intraperitoneal OX injection, indirect calorimetry (CLAMS) and iBAT analysis; type: in vivo; settings: single 30 mg kg−1 i.p. dose
Experimental: One dose of 30 mg kg^−1 OX was administered intraperitoneally in a single dose to 6-8 week C57BL/6 mice, and metabolic rates and energy expenditure of those mice were then compared to 1 mg kg^−1 isoproterenol- or vehicle (PBS) control-injected mice. Isoproterenol is a beta-sympathomimetic and serves as a reference for Ucp1 expression and brown fat activity. Metabolic rates were measured by indirect calorimetry using the Comprehensive Lab Animal Monitoring System (CLAMS, Columbus Instruments). Food and water were available ad libitum. Mice were acclimatized to individual cages for 24 hours prior to recording, and then underwent 24 hours of monitoring.
Increased energy expenditure was positively correlated with iBAT lipolysis, as evident from depletion of fat droplets. […] As a consequence, core body temperature was elevated by OX injection.

[2] = cited from earlier work

orexin-A (EPLPDCCRQKTCSCRLYELLHGAGNHAAGILTL) [OX, human orexin A, cat; No. 24470, Anaspec]
lipid accumulation and mitochondrial biogenesis (HIB1 cells): induced extensive lipid accumulation and mitochondrial biogenesis
cells differentiated from fibroblastic to spherical morphology typical of differentiated fat cells ([1]; 100 nM OX 3 days, then adipogenic media 7 days): greater than 90%
mitochondrial biogenesis ([1]; MitoTracker staining): induced extensive mitochondrial biogenesis
expression of stearoyl-CoA desaturase (Scd), elevation ([1]; during differentiation): over 100 fold
rate and extent of cytoplasmic triglyceride accumulation ([1]; following OX treatment): comparable to that seen following treatment with BMP-7
expression of adipogenic transcription factors C/ebp-alpha, Ppar-γ1, Prdm16, Pgc1-alpha, Ucp1 ([1]; immunoblotting): comparable to that induced by BMP-7
Ucp-1 and deiodinase type 2 mRNA expression ([1]; qRT-PCR): induced
mRNAs encoding inhibitory factors Necdin, Preadipocyte factor-1, Wnt10a ([1]; qRT-PCR, 3 days treatment then 7 days adipogenic induction): suppression
Pref-1 expression ([1]; qRT-PCR, normalized to 18S RNA): decreased by two orders of magnitude
adipogenic regulators C/ebp, Prdm16, Ppar-gamma, Foxc2, Zfp423 ([1]; qRT-PCR, prior to suppression of adipogenic inhibitors): significantly increased
core body temperature (C57BL/6 mice): elevated
food consumption (C57BL/6 mice): increased food consumption
increase in whole-body energy expenditure (C57BL/6 mice): 23-25%
oxygen consumption (C57BL/6 mice): stimulated oxygen consumption
physical activity (C57BL/6 mice): decreased physical activity
prdm16, Pgc1-alpha, C/ebp-alpha, Dio2, Ucp-1 expression in BAT (C57BL/6 mice): induced
extent of iBAT lipolysis (C57BL/6 mice; isoproterenol 1 mg kg−1 reference): comparable to that induced by isoproterenol
blood-brain barrier permeation ([2]; in contrast with orexin-B): blood-brain barrier permeant
liposolubility ([2]; versus orexin-B): higher liposolubility than orexin-B
stability ([2]; versus orexin-B): much more stable than Orexin-B
